According to patent publication US11053204B2, “Pyrimidinyloxy benzene derivatives as herbicides” (FMC Corporation, priority 2015, dated 2021):

Assays:
Format in all cases: in vivo
[1] = system: morningglory (Ipomoea coccinea); experiment: Test C postemergence, plant response rating; settings: for Morningglory plant response rating: scale 0 to 100 (0 no effect, 100 complete control)
How it was run: (§1)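 Preemergence: seeds sown in loam–sand blend or silt loam and sprayed with test chemicals in a non-phytotoxic surfactant-containing solvent. Postemergence: potted plants at 2–18 cm (1–4-leaf stage) sprayed with the same formulation. After 13–15 d in greenhouse, visual rating versus controls on 0 (no effect) to 100 (complete control) scale.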

[2] = system: chickweed (common chickweed, Stellaria media); experiment: Test C postemergence, plant response rating; settings: for Chickweed plant response rating: scale 0 to 100 (0 no effect, 100 complete control)
How it was run: as §1

[3] = system: foxtail, giant (giant foxtail, Setaria faberii); experiment: Test C postemergence, plant response rating; settings: for Foxtail, Giant plant response rating: scale 0 to 100 (0 no effect, 100 complete control)
How it was run: as §1

[4] = system: sedge, umbrella (small-flower umbrella sedge, Cyperus difformis); experiment: Test B flooded paddy test, plant response rating; settings: 250 g ai/ha; Flood; scale of 0 to 100 where 0 is no effect and 100 is complete control; 13 to 15 days
How it was run: (§2)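 Pots were flooded to 3 cm above the soil surface at treatment, compound applied directly to the paddy water, and that depth held throughout. Plants were kept in a greenhouse for 13 to 15 days, then visually rated against untreated controls.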

[5] = system: barnyardgrass (Echinochloa crus-galli); experiment: Test B flooded paddy test, plant response rating; settings: 250 g ai/ha; Flood; scale of 0 to 100 where 0 is no effect and 100 is complete control; 13 to 15 days
How it was run: as §2

[6] = system: ducksalad (Heteranthera limosa); experiment: Test B flooded paddy test, plant response rating; settings: 250 g ai/ha; Flood; scale of 0 to 100 where 0 is no effect and 100 is complete control; 13 to 15 days
How it was run: as §2

rice (Oryza sativa) = experiment: Test B flooded paddy test, plant response rating; settings: 250 g ai/ha; Flood; scale of 0 to 100 where 0 is no effect and 100 is complete control; 13 to 15 days
How it was run: as §2

[7] = system: waterhemp (common waterhemp, Amaranthus rudis); experiment: Test C preemergence, plant response rating; settings: Preemergence
How it was run: as §1

[8] = system: morningglory (Ipomoea coccinea); experiment: Test C preemergence, plant response rating; settings: Preemergence
How it was run: as §1

[9] = system: oilseed rape (Brassica napus); experiment: Test C preemergence, plant response rating; settings: Preemergence
How it was run: as §1

[10] = system: ryegrass, Italian (Italian ryegrass, Lolium multiflorum); experiment: Test C preemergence, plant response rating; settings: Preemergence
How it was run: as §1

soybean (Glycine max) = experiment: Test C preemergence, plant response rating; settings: Preemergence
How it was run: as §1

[11] = system: blackgrass (Alopecurus myosuroides); experiment: Test C preemergence, plant response rating; settings: Preemergence
How it was run: as §1

corn (Zea mays) = experiment: Test C preemergence, plant response rating; settings: Preemergence
How it was run: as §1

[12] = system: velvetleaf (Abutilon theophrasti); experiment: Test C preemergence, plant response rating; settings: Preemergence
How it was run: as §1

[13] = system: ragweed (common ragweed, Ambrosia elatior); experiment: Test C preemergence, plant response rating; settings: Preemergence
How it was run: as §1

[14] = system: wheat (winter wheat, Triticum aestivum); experiment: Test C preemergence, plant response rating; settings: Preemergence
How it was run: as §1

[15] = system: crabgrass, large (large crabgrass, Digitaria sanguinalis); experiment: Test C preemergence, plant response rating; settings: Preemergence
How it was run: as §1

[16] = system: lambsquarters (Chenopodium album); experiment: Test C preemergence, plant response rating; settings: Preemergence
How it was run: as §1

[17] = system: foxtail, giant (giant foxtail, Setaria faberii); experiment: Test C preemergence, plant response rating; settings: Preemergence
How it was run: as §1

[18] = system: nutsedge, yellow (yellow nutsedge, Cyperus esculentus); experiment: Test C preemergence, plant response rating; settings: Preemergence
How it was run: as §1

N#Cc1cccc(Oc2ncc(Cl)cn2)c1COCCC(F)(F)F [Compound 80]
Plant response rating, Morningglory ([1]; 16 g ai/ha, scale of 0 to 100): 25 | Plant response rating, Morningglory ([1]; 31 g ai/ha, scale 0 to 100): 35 | Morningglory plant response rating ([1]; 62 g ai/ha): 55 | Morningglory plant response rating ([1]; 125 g ai/ha): 60 | Plant response rating, Chickweed ([2]; 16 g ai/ha, scale of 0 to 100): 60 | Plant response rating, Chickweed ([2]; 31 g ai/ha, scale 0 to 100): 75 | Chickweed plant response rating ([2]; 62 g ai/ha): 75 | Chickweed plant response rating ([2]; 125 g ai/ha): 90 | Plant response rating, Foxtail, Giant ([3]; 16 g ai/ha, scale of 0 to 100): 5 | Plant response rating, Foxtail, Giant ([3]; 31 g ai/ha, scale 0 to 100): 10 | Foxtail, Giant plant response rating ([3]; 62 g ai/ha): 10 | Foxtail, Giant plant response rating ([3]; 125 g ai/ha): 15 | Plant response rating, Sedge, Umbrella [4]: 100 | Plant response rating, Barnyardgrass [5]: 75 | Plant response rating, Ducksalad [6]: 100 | Plant response rating, Rice (rice (Oryza sativa)): 55 | Plant response rating, Waterhemp ([7]; 125 g ai/ha, scale of 0 to 100): 100 | Plant response rating, Waterhemp ([7]; 31 g ai/ha, scale 0 to 100): 100 | Plant response rating, Waterhemp ([7]; 62 g ai/ha, scale 0 to 100): 100 | Plant response rating, Morningglory ([8]; 125 g ai/ha, scale of 0 to 100): 75 | Plant response rating, Morningglory ([8]; 31 g ai/ha, scale 0 to 100): 20 | Plant response rating, Morningglory ([8]; 62 g ai/ha, scale 0 to 100): 40 | Plant response rating, Oilseed Rape ([9]; 125 g ai/ha, scale of 0 to 100): 100 | Plant response rating, Oilseed Rape ([9]; 31 g ai/ha, scale 0 to 100): 80 | Plant response rating, Oilseed Rape ([9]; 62 g ai/ha, scale 0 to 100): 70 | Plant response rating, Ryegrass, Italian ([10]; 125 g ai/ha, scale of 0 to 100): 25 | Plant response rating, Ryegrass, Italian ([10]; 31 g ai/ha, scale 0 to 100): 0 | Plant response rating, Ryegrass, Italian ([10]; 62 g ai/ha, scale 0 to 100): 5 | Plant response rating, Soybean (soybean (Glycine max); 125 g ai/ha, scale of 0 to 100): 85 | Plant response rating, Soybean (soybean (Glycine max); 31 g ai/ha, scale 0 to 100): 20 | Plant response rating, Soybean (soybean (Glycine max); 62 g ai/ha, scale 0 to 100): 40 | Plant response rating, Blackgrass ([11]; 62 g ai/ha, scale of 0 to 100): 70 | Plant response rating, Blackgrass ([11]; 125 g ai/ha, scale of 0 to 100): 90 | Plant response rating, Blackgrass ([11]; 16 g ai/ha, scale 0 to 100): 5 | Plant response rating, Blackgrass ([11]; 31 g ai/ha, scale 0 to 100): 10 | Plant response rating, Corn (corn (Zea mays); 62 g ai/ha, scale of 0 to 100): 5 | Plant response rating, Corn (corn (Zea mays); 125 g ai/ha, scale of 0 to 100): 20 | Plant response rating, Corn (corn (Zea mays); 16 g ai/ha, scale 0 to 100): 0 | Plant response rating, Corn (corn (Zea mays); 31 g ai/ha, scale 0 to 100): 5 | Plant response rating, Velvetleaf ([12]; 125 g ai/ha, scale of 0 to 100): 100 | Plant response rating, Velvetleaf ([12]; 31 g ai/ha, scale 0 to 100): 55 | Plant response rating, Velvetleaf ([12]; 62 g ai/ha, scale 0 to 100): 70 | Plant response rating, Ragweed ([13]; 125 g ai/ha, scale of 0 to 100): 20 | Plant response rating, Ragweed ([13]; 31 g ai/ha, scale 0 to 100): 0 | Plant response rating, Ragweed ([13]; 62 g ai/ha, scale 0 to 100): 5 | Plant response rating, Wheat ([14]; 125 g ai/ha, scale of 0 to 100): 15 | Plant response rating, Wheat ([14]; 31 g ai/ha, scale 0 to 100): 0 | Plant response rating, Wheat ([14]; 62 g ai/ha, scale 0 to 100): 0 | Plant response rating, Crabgrass, Large ([15]; 62 g ai/ha, scale of 0 to 100): 100 | Plant response rating, Crabgrass, Large ([15]; 125 g ai/ha, scale of 0 to 100): 98 | Plant response rating, Crabgrass, Large ([15]; 16 g ai/ha, scale 0 to 100): 55 | Plant response rating, Crabgrass, Large ([15]; 31 g ai/ha, scale 0 to 100): 80 | Plant response rating, Lambsquarters ([16]; 125 g ai/ha, scale of 0 to 100): 98 | Plant response rating, Lambsquarters ([16]; 31 g ai/ha, scale 0 to 100): 70 | Plant response rating, Lambsquarters ([16]; 62 g ai/ha, scale 0 to 100): 95 | Plant response rating, Foxtail, Giant ([17]; 62 g ai/ha, scale of 0 to 100): 85 | Plant response rating, Foxtail, Giant ([17]; 125 g ai/ha, scale of 0 to 100): 100 | Plant response rating, Foxtail, Giant ([17]; 31 g ai/ha, scale 0 to 100): 40 | Plant response rating, Nutsedge, Yellow ([18]; 125 g ai/ha, scale of 0 to 100): 35 | Plant response rating, Nutsedge, Yellow ([18]; 31 g ai/ha, scale 0 to 100): 0 | Plant response rating, Nutsedge, Yellow ([18]; 62 g ai/ha, scale 0 to 100): 0
